# Source: US11324680B2, “Topical compositions” (priority 2017, dated 2022)
# Test system: Propionibacterium acnes
# Experiment: Antimicrobial efficacy in analogy to challenge test NF EN ISO11930, protection against acne
# Format: cell-based
# Settings: 24 h; for Log reduction: Propionibacterium acnes; for Propionibacterium acnes colony count: 22° C., initial contamination 310000 cfu/ml
# Description: The antimicrobial efficacy is assessed in analogy to the regulatory challenge test method (NF EN ISO11930). Thus, solutions of the respective active(s) in ethanol are prepared and further dissolved in physiological serum with 0.85 wt.-% NaCl in the concentrations as outlined in table 1 under sterile conditions. The samples were solubilized in physiological serum supplemented with 1 wt.-% ethanol. A control was prepared under sterile condition based on a serum with 0.85 wt.-% NaCl and 1 wt.-% ethanol (C1). […] The wells are contaminated resulting in the initial contamination as outlined in table 1. After the contamination, each well was thoroughly mixed to ensure a homogeneous distribution of bacteria. Then each plate was incubated at 22° C. for 24 h. The counting of the (remaining) population is carried out 24 h after contamination.
SMILES,Log reduction (single active at 0.2 wt.-%),Log reduction (single active at 0.3 wt.-%),Propionibacterium acnes colony count (single active at 0.2 wt.-%) [cfu/ml],Propionibacterium acnes colony count (single active at 0.3 wt.-%) [cfu/ml],Log reduction (single active at 0.1 wt.-%),Propionibacterium acnes colony count (single active at 0.1 wt.-%) [cfu/ml]
"CCCCCCCC(=O)OCC(O)CO (centres unmarked) [glyceryl caprylate, Glyceryl caprylate]",3,4.5,260,10,–,–
O=C(CO)[C@H](O)CO (racemic) [erythrulose],–,3.5,–,100,2,3300
